{"source": "patent US11147781B2", "about": "“Methods for alleviating statin myopathy” (priority 2014, dated 2021)", "key": {"[1]": {"assay": "No Observed Adverse Effect Level (NOAEL) for HMB oral ingestion in rats", "type": "in vivo", "experimental": "This is an estimated human equivalent of 558 mg/kg and 665 mg/kg for men and women, respectively; assuming a body weight of 150 lbs equates to 38 g (males) and 45 g (females). […] Overall, standard doses of HMB appear to be well-tolerated over long periods of time."}, "[2]": {"system": "rosuvastatin-induced myalgia and myopathy", "assay": "Initial assessment of HMB reversal of statin myalgia (single volunteer)", "type": "in vivo, human", "experimental": "A healthy, fully informed and consenting adult volunteer with severe rosuvastatin-induced myalgia and myopathy and pre-statin LDL of 260 was administered 1 gram HMB three times a day (3 grams/day total) while rosuvastatin therapy was continued. Within 72 hours of the initial HMB administration, statin myalgia/myopathy fully subsided. During brief intervals where HMB treatment was discontinued (i.e., unintentionally skipped doses), the subject reported a return of myalgia, which again subsided upon reinstatement of HMB treatment."}, "[3]": {"system": "patients with statin-induced myopathy (SIM)", "type": "in vivo, human", "experimental": "A clinical study was conducted to evaluate the effects of HMB on patients with statin-induced myopathy (SIM). A total of eighteen patients were evaluated for the study with informed written consent obtained. Of the eighteen patients, fourteen (14) ultimately qualified as having true statin myalgia and were enrolled in the study. All patients enrolled were under the care of a board certified cardiologist.\nA summary of the enrolled patients and their outcomes is as follows: • 1. All 14 had type 2a or mixed hyperlipidemia. • 2. All 14 had been treated with multiple statin agents, in each case withdrawing from the statin agent due to myalgia/myopathy. • 3. Of the 14 patients enrolled, 4 had elevated CPKs (creatine phosphokinase, a biomarker for myositis/rhabdomyolysis) secondary to SIM. • 4. Five of the 14 patients had undergone prior percutaneous coronary intervention with stents. • 5. One of the 14 patients had undergone prior coronary bypass surgery. • 6. Four of the 14 patients had angiographically documented moderate coronary artery disease not requiring percutaneous coronary intervention (PCI)/coronary bypass. • 7. Four of the 18 patients were disqualified due to the following: • Patient's leg myalgia was secondary to angiographically proven peripheral vascular disease, not SIM and symptoms were consistent with this diagnosis. • Patient's unilateral leg pain was secondary to neuropathy, not SIM. • Patient complained of GI upset on combined statin+3-hydroxy 3-methybutyrate and medication was discontinued. […] All 14 qualified patients remained on combination statin (in some cases with Zetia to achieve target) plus HMB therapy after the initial duration of the study. As noted, of those who had previously discontinued statin therapy, all had been tried on multiple statin agents without success. • 9. Follow up was conducted with all patients including out-patient visits and phone conversation. • 10.\nThe free acid form was used in one patient who experienced major CPK elevations (900-1000 IU/L range) and disabling myalgia on statins.\nFor this study, patients were evaluated using multiple laboratories with variable lab normal ranges, which are included. In the patient population as a whole, the full spectrum of SIM is presented, including statin myalgia […] CPK elevation (myositis or rhabdomyolysis depending on severity), elevation of CPK without myalgia, post-statin elevation of CPK with and without pain, post-statin myalgia without CPK elevation, and, finally, statin-induced muscle weakness without myalgia. Also represented were other statin-induced side effects such as short-term memory loss and glucose intolerance."}, "[4]": {"system": "statin-induced short-term memory loss", "assay": "Treatment of statin-induced short-term memory loss with HMB", "type": "in vivo, human", "conditions": "within two months of HMB treatment, statin continued", "from_the_text": "HMB administration is used to treat short-term memory loss, an unusual side effect resulting from statin administration. […] Protocol: Patient describes short term memory loss after starting statin. Initiate the following steps: • 1. Assess memory loss with standardized neuro-psychometric testing as baseline status; • 2. Initiate calcium HMB monohydrate, 2 g twice daily; or calcium free acid gel, 1 g three times daily; • 3. Continue statin therapy with no dose change; • 4. Obtain baseline lab (lipid panel, CPK, liver function/metabolic profile) and repeat in 12 weeks; • 5. Reassess memory status in 12 weeks repeating psycho-metric testing and comparing to baseline study."}, "[5]": {"system": "statin-induced abnormal liver function", "assay": "Treatment of statin-induced abnormal liver function using HMB", "type": "in vivo, human", "conditions": "within 3 months of beginning HMB treatment", "experimental": "Elevated liver function tests (LFTs) are common in statin users. The presence of elevated transaminases, commonly the transaminases alanine transaminase (ALT or SGPT) and aspartate transaminase (AST or SGOT), are indicators of liver damage. Terms for this condition include transaminasemia and transaminitis, Normal ranges for both ALT and AST are 8-40 U/L with mild transaminesemia noted to the upward numerical limit of 250 U/L. Here, HMB is administered to normalize abnormal liver function tests and reverse transaminitis. […] Once enrolled, initiate the following steps: • 1. Initiate calcium HMB monohydrate, 2 g twice daily or HMB free acid (gel form), 1 g three times daily; • 2. Continue statin agent with no dose change; • 3. Repeat liver panel in 3 months and compare to baseline."}, "[6]": {"system": "statin-induced glucose intolerance", "assay": "Treatment of statin-induced glucose intolerance using HMB", "type": "in vivo, human", "from_the_text": "Glucose intolerance with hyperglycemia/increased risk for diabetes, probably related to insulin resistance, has been reported in statin users, especially lipophilic statins such as […], less so in hydrophilic statins such as pravastatin. Here, HMB administration is used to treat statin-related glucose intolerance. Protocol: type 1, 1.5, and 2 diabetics with hemoglobin A1C at or exceeding 6.5% are eligible; also eligible are hyperglycemic/increased risk for diabetes patients not on diabetic treatment but with a hemoglobin A1C at or exceeding 5.7%; patients with critical value fasting blood glucose and hemoglobin A1C levels are excluded. Once enrolled, the following steps are initiated: • 1. Continue statin and diabetic medications with dosages unchanged; • 2. Initiate calcium HMB monohydrate, 2 g twice daily, or HMB free acid (gel form), 1 g three times daily; • 3. Repeat fasting blood glucose and hemoglobin A1C in 3 weeks and 6 weeks;"}, "[7]": {"system": "statin-related cumulative trauma disorder", "assay": "Treatment of statin-related cumulative trauma disorder using HMB", "type": "in vivo, human", "conditions": "within 6 weeks of beginning HMB treatment", "from_the_text": "Cumulative trauma disorder, also known as chronic overuse syndrome, is characterized by muscle damage due to performing repetitive activities over time. Statin users are particularly vulnerable to cumulative trauma disorder due to impaired ability to heal chronically micro-traumatized muscle. Here, HMB is used to treat cumulative trauma disorder. Protocol: Patients are enrolled if they qualify with symptoms that include chronic muscle weakness and pain complemented by an occupation or lifestyle lending itself to chronic overuse syndrome (e.g., construction workers, etc.). All patients are currently on statins. Initial documentation of strength levels and pain severity are required. Pain is evaluated using the Verbal Numerical Rating Scale (VNRS). Strength is measured using the Manual Muscle Testing/5-point scale. Additionally, grip strength is measured using a dynamometer. Once enrolled, the following steps are initiated: • 1. Obtain baseline lab including lipid panel and CPK-MM levels; • 2. Continue statin with dose unchanged; • 3. Continue repetitive activity in question at the same level of intensity; • 4. […]"}, "[8]": {"conditions": "cited from earlier work"}, "[9]": {"conditions": "cited from earlier work", "remark": "listed apart in the source"}}}
{"compound": "CC(C)(O)CC(=O)O", "note": "[HMB, β-hydroxy β-methylbutyrate]", "values": [{"measurement": "human equivalent of NOAEL assuming a body weight of 150 lbs", "setting": "[1]; females", "result": 45, "unit": "g"}, {"measurement": "human equivalent of NOAEL assuming a body weight of 150 lbs", "setting": "[1]; males", "result": 38, "unit": "g"}, {"measurement": "time until statin myalgia/myopathy fully subsided", "setting": "[2]; 1 gram HMB three times a day, rosuvastatin continued, one volunteer", "result": "≤ 72", "unit": "h"}, {"measurement": "benefit of increased HMB dosage", "setting": "[2]; increase to 6 grams/day", "result": "no additional benefit"}, {"measurement": "short term memory loss", "setting": "[3]; Patient F-6, atorvastatin 40 mg + Zetia 10 mg + 2 g BID, 2-month follow-up", "result": "mostly resolved"}, {"measurement": "response of SIM symptoms", "setting": "[3]; all 14 qualifying patients, combination statin plus HMB", "result": "complete resolution of SIM symptoms"}, {"measurement": "SIM-related myalgia", "setting": "[3]; the disqualified patient with GI upset, after HMB treatment", "result": "resolved completely"}, {"measurement": "short-term memory loss", "setting": "[4]", "result": "reversal of some or all short-term memory loss"}, {"measurement": "ALT/SGPT", "setting": "[5]", "result": "less than 40 U/L"}, {"measurement": "AST/SGOT", "setting": "[5]", "result": "less than 40 U/L"}, {"measurement": "fasting blood glucose", "setting": "[6]; diabetic patients, within 6 weeks", "result": "less than 130 mg %"}, {"measurement": "hemoglobin A1C", "setting": "[6]; diabetics, within 6 weeks of beginning HMB treatment", "result": "below 6.5%"}, {"measurement": "fasting blood glucose", "setting": "[6]; hyperglycemic/non-diabetic management patients, within 6 weeks", "result": "less than 100 mg %"}, {"measurement": "hemoglobin A1C", "setting": "[6]; hyperglycemics on dietary management, within 6 weeks", "result": "< 5.7", "unit": "%"}, {"measurement": "pain severity", "setting": "[7]", "result": "reduced pain severity"}, {"measurement": "strength levels", "setting": "[7]", "result": "increased strength levels"}, {"measurement": "toxicological parameters in serum", "setting": "[8]; 3 g HMB daily for up to 8 weeks, youth and older persons", "result": "failed to alter toxicological parameters in serum"}, {"measurement": "safety on long administration", "setting": "[8]; 3 g daily, one year of administration", "result": "safe"}, {"measurement": "toxic effects on serum parameters", "setting": "[8]; approximately 6 g HMB daily (78 mg/kg) for one month, untrained young males subject to exercise", "result": "did not show any toxic effects"}, {"measurement": "tolerability", "setting": "[8]; standard doses, long periods of time", "result": "well-tolerated"}, {"measurement": "half-life", "setting": "[9]; in vivo", "result": "relatively short"}, {"measurement": "time to peak levels", "setting": "[9]; in vivo", "result": "quickly"}, {"measurement": "area under blood level curve", "setting": "[9]; when ingested with glucose", "result": "reduced"}]}
